Source: ChEMBL document CHEMBL5325488, “Discovery of SMD-3040 as a Potent and Selective SMARCA2 PROTAC Degrader with Strong in vivo Antitumor Activity” (J Med Chem, 2023)

Legend:
[1] = biological target: T1, von Hippel-Lindau disease tumor suppressor/SWI/SNF-related matrix-associated actin-dependent regulator of chromatin subfamily A member 2 (Homo sapiens, UniProt P51531+P40337); experiment: PROTAC activity at VHL/C-terminal HiBiT fused SMARCA2 in human HeLa cells assessed as induction of SMARCA2 degradation at 0.0001 to 1 uM incubated for 3 hrs by Nano-Glo HiBiT analysis relative to control; format: cell-based; conditions: dose 0.0001-1 µM
[2] = biological target: T2, von Hippel-Lindau disease tumor suppressor/SWI/SNF-related matrix-associated actin-dependent regulator of chromatin subfamily A member 4 (Homo sapiens, UniProt P51532+P40337); experiment: In vivo PROTAC activity at VHL/SMARCA4 in SCID mouse xenografted with human MV4-11 cells assessed as reduction of SMARCA4 level in tumor at 50 mg/kg, iv administered as single dose measured after 72 hrs by Western blotting analysis; format: ADME, organism-based; parameters: scale not given: the % may be the effect or the level left
Target sequence in this assay (P51532 whole entry): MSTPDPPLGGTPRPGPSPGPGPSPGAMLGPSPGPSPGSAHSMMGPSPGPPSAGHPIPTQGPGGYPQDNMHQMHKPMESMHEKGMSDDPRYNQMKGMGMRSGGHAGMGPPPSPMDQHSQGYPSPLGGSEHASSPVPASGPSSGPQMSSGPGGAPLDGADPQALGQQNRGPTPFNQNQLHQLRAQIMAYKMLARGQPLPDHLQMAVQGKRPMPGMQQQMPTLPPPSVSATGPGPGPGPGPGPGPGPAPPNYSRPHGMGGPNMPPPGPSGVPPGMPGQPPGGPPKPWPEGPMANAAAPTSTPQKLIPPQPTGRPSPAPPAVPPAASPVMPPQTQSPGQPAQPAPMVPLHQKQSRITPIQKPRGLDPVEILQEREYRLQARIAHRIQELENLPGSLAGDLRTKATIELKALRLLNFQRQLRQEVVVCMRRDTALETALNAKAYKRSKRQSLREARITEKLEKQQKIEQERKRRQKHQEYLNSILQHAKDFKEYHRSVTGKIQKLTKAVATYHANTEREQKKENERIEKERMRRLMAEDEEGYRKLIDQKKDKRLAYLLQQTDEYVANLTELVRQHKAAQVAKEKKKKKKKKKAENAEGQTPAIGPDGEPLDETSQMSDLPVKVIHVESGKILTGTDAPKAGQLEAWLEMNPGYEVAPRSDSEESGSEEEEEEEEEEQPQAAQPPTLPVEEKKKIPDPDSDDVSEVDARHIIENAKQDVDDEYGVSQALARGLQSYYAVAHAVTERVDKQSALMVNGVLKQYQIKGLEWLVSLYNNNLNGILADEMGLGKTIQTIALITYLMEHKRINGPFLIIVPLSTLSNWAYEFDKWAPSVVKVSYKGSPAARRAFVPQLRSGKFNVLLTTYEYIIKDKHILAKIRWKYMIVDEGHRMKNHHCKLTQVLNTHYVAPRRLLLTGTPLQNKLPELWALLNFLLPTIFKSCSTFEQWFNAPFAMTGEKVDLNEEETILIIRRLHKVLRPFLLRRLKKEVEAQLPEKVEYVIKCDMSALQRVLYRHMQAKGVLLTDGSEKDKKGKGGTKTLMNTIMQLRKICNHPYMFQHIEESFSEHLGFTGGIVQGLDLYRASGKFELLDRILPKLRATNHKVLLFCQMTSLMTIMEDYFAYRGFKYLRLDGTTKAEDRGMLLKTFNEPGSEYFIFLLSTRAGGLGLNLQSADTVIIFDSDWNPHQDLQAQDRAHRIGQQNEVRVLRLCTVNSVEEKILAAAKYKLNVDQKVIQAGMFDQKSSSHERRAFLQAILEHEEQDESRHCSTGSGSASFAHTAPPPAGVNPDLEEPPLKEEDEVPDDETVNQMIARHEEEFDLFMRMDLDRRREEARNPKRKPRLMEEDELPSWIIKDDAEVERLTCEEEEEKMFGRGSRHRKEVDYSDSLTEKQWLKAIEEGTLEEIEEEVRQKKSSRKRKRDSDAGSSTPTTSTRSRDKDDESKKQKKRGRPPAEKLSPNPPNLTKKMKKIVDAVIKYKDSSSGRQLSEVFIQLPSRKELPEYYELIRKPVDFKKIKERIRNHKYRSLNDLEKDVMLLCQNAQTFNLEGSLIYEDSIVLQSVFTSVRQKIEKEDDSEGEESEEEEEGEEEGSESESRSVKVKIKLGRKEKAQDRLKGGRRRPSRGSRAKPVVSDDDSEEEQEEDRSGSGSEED
Target sequence in this assay (P40337 whole entry): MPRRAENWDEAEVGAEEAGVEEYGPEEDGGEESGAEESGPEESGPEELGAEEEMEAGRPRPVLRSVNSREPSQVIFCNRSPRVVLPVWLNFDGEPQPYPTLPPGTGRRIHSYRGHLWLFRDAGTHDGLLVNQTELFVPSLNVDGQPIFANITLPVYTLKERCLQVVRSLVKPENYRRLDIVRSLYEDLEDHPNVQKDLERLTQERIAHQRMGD

[3] = test system: SK-MEL-28; experiment: Antiproliferative activity against human SK-MEL-28 cells expressing wild-type SMARCA2 assessed as cell growth inhibition measured after 7 days by WST-8 assay; format: functional; conditions: SK-MEL-28, 168 h, time 7 day
[4] = test system: NCI-H647; experiment: Antiproliferative activity against human NCI-H647 cells expressing wild-type SMARCA2 assessed as cell growth inhibition by measuring maximal efficacy measured after 7 days by WST-8 assay relative to control; format: functional; conditions: time 7 day
[5] = biological target: T2, von Hippel-Lindau disease tumor suppressor/SWI/SNF-related matrix-associated actin-dependent regulator of chromatin subfamily A member 4; experiment: In vivo PROTAC activity at VHL/SMARCA4 in SCID mouse xenografted with human MV4-11 cells assessed as reduction of SMARCA4 level in tumor at 50 mg/kg, iv administered as single dose measured after 96 hrs by Western blotting analysis; format: ADME, organism-based; parameters: scale not given: the % may be the effect or the level left
Target sequence in this assay (P51532 whole entry): as the sequence (P51532 whole entry) above
Target sequence in this assay (P40337 whole entry): as the sequence (P40337 whole entry) above

[6] = Drug concentration in SCID mouse tumor xenografted with human MV4-11 cells at 50 mg/kg, iv measured after 48 hrs by LC-MS/MS method; format: ADME, organism-based, Neoplasm; conditions: read-out: Ct
[7] = biological target: T1, von Hippel-Lindau disease tumor suppressor/SWI/SNF-related matrix-associated actin-dependent regulator of chromatin subfamily A member 2; experiment: In vivo PROTAC activity at VHL/SMARCA2 in SCID mouse xenografted with human MV4-11 cells assessed as remaining activity in tumor at 50 mg/kg, iv administered as single dose measured after 2 hrs by Western blotting analysis (reference value: 100 +/- 15 % ); format: ADME, organism-based
Target sequence in this assay (P51531 whole entry, the tested form may be a part): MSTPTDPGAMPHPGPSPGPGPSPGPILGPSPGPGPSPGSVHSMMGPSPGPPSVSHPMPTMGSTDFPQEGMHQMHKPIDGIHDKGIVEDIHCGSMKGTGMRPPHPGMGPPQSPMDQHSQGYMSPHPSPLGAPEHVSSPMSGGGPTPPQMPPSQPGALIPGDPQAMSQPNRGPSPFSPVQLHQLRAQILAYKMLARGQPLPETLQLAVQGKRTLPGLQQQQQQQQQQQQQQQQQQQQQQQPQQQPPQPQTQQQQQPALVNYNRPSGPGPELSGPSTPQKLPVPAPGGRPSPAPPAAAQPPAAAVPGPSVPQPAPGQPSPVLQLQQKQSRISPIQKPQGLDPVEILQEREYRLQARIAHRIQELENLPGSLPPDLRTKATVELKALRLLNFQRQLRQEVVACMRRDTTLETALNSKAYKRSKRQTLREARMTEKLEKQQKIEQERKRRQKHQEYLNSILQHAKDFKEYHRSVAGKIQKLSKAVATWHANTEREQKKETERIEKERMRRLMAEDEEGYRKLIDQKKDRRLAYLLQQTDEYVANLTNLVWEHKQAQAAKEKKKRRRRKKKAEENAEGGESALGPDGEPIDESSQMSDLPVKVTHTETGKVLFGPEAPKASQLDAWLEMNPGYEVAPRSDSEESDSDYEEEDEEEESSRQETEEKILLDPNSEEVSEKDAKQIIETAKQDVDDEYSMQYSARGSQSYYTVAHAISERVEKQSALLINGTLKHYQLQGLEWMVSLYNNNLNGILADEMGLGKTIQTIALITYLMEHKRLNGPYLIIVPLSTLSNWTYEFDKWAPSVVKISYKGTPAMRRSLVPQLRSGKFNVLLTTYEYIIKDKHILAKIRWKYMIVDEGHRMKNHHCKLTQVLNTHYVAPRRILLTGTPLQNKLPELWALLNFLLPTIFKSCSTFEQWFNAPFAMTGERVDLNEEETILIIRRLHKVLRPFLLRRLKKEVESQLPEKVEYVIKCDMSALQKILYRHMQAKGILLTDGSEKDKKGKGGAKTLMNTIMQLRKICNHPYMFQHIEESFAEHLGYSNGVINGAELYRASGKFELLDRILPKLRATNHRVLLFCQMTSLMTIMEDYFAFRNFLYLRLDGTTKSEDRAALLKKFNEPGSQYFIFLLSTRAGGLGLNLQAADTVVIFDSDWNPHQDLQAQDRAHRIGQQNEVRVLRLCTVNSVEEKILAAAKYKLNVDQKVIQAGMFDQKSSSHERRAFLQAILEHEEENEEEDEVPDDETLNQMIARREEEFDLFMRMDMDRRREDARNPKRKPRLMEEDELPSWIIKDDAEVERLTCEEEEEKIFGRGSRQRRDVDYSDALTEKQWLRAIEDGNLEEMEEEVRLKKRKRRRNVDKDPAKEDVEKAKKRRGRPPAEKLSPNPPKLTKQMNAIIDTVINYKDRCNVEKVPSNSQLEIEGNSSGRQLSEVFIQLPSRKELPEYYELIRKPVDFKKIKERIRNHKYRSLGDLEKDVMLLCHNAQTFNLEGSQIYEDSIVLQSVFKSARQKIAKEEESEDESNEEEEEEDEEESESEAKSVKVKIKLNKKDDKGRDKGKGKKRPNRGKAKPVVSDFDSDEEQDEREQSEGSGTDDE
Target sequence in this assay (P40337 whole entry, the tested form may be a part): as the sequence (P40337 whole entry) above

[8] = test system: A549; experiment: Antiproliferative activity against SMARCA4-deficient human A549 cells assessed as cell growth inhibition measured after 7 days by WST-8 assay; format: functional; conditions: A549, 168 h, time 7 day
[9] = biological target: T2, von Hippel-Lindau disease tumor suppressor/SWI/SNF-related matrix-associated actin-dependent regulator of chromatin subfamily A member 4; experiment: PROTAC activity at VHL/C-terminal HiBiT fused SMARCA4 in human HeLa cells assessed as induction of SMARCA4 degradation incubated for 3 hrs by Nano-Glo HiBiT analysis; format: cell-based
Target sequence in this assay (P51532 whole entry): as the sequence (P51532 whole entry) above
Target sequence in this assay (P40337 whole entry): as the sequence (P40337 whole entry) above

[10] = biological target: T1, von Hippel-Lindau disease tumor suppressor/SWI/SNF-related matrix-associated actin-dependent regulator of chromatin subfamily A member 2; experiment: In vivo PROTAC activity at VHL/SMARCA2 in SCID mouse xenografted with human NCI-H838 cells assessed as reduction of SMARCA2 level in tumor at 50 mg/kg, iv administered as single dose measured after 24 hrs by Western blotting analysis; format: functional, organism-based; parameters: scale not given: the % may be the effect or the level left
[11] = biological target: T2, von Hippel-Lindau disease tumor suppressor/SWI/SNF-related matrix-associated actin-dependent regulator of chromatin subfamily A member 4; experiment: PROTAC activity at VHL/C-terminal HiBiT fused SMARCA4 in human HeLa cells assessed as induction of SMARCA4 degradation incubated for 6 hrs by Nano-Glo HiBiT analysis; format: cell-based
Target sequence in this assay (P51532 whole entry): as the sequence (P51532 whole entry) above
Target sequence in this assay (P40337 whole entry): as the sequence (P40337 whole entry) above

[12] = biological target: T2, von Hippel-Lindau disease tumor suppressor/SWI/SNF-related matrix-associated actin-dependent regulator of chromatin subfamily A member 4; experiment: PROTAC activity at VHL/C-terminal HiBiT fused SMARCA4 in human HeLa cells assessed as induction of SMARCA4 degradation incubated for 24 hrs by Nano-Glo HiBiT analysis; format: cell-based
Target sequence in this assay (P51532 whole entry): as the sequence (P51532 whole entry) above
Target sequence in this assay (P40337 whole entry): as the sequence (P40337 whole entry) above

[13] = biological target: T2, von Hippel-Lindau disease tumor suppressor/SWI/SNF-related matrix-associated actin-dependent regulator of chromatin subfamily A member 4; experiment: PROTAC activity at VHL/C-terminal HiBiT fused SMARCA4 in human HeLa cells assessed as induction of SMARCA4 degradation incubated for 1 to 48 hrs by Nano-Glo HiBiT analysis; format: cell-based; conditions: dose 0.001-10 µM, time 1-48 hrs
[14] = biological target: T1, von Hippel-Lindau disease tumor suppressor/SWI/SNF-related matrix-associated actin-dependent regulator of chromatin subfamily A member 2; experiment: PROTAC activity at VHL/C-terminal HiBiT fused SMARCA2 in human HeLa cells assessed as induction of SMARCA2 degradation at 0.001 to 10 uM by Nano-Glo HiBiT analysis; format: cell-based; conditions: dose 0.001-10 µM, time 1-48 hrs, TDE = time-dependent effect
[15] = biological target: T1, von Hippel-Lindau disease tumor suppressor/SWI/SNF-related matrix-associated actin-dependent regulator of chromatin subfamily A member 2; experiment: PROTAC activity at VHL/C-terminal HiBiT fused SMARCA2 in human HeLa cells assessed as induction of SMARCA2 degradation incubated for 3 hrs by Nano-Glo HiBiT analysis; format: cell-based
Target sequence in this assay (P51531 whole entry, the tested form may be a part): as the sequence (P51531 whole entry, the tested form may be a part) above
Target sequence in this assay (P40337 whole entry, the tested form may be a part): as the sequence (P40337 whole entry) above

[16] = biological target: T2, von Hippel-Lindau disease tumor suppressor/SWI/SNF-related matrix-associated actin-dependent regulator of chromatin subfamily A member 4; experiment: In vivo PROTAC activity at VHL/SMARCA4 in SCID mouse xenografted with human MV4-11 cells assessed as reduction of SMARCA4 level in tumor at 50 mg/kg, iv administered as single dose measured after 24 hrs by Western blotting analysis; format: ADME, organism-based; parameters: scale not given: the % may be the effect or the level left
Target sequence in this assay (P51532 whole entry): as the sequence (P51532 whole entry) above
Target sequence in this assay (P40337 whole entry): as the sequence (P40337 whole entry) above

[17] = biological target: T1, von Hippel-Lindau disease tumor suppressor/SWI/SNF-related matrix-associated actin-dependent regulator of chromatin subfamily A member 2; experiment: PROTAC activity at VHL/C-terminal HiBiT fused SMARCA2 in human HeLa cells assessed as induction of SMARCA2 degradation by measuring maximal efficacy incubated for 24 hrs by Nano-Glo HiBiT analysis relative to control; format: cell-based
[18] = Drug concentration in SCID mouse plasma xenografted with human MV4-11 cells at 50 mg/kg, iv measured after 72 hrs by LC-MS/MS method; format: ADME, organism-based
[19] = test system: NCI-H1793; experiment: Antiproliferative activity against SMARCA4-deficient human NCI-H1793 cells assessed as cell growth inhibition by measuring maximal efficacy measured after 7 days by WST-8 assay relative to control; format: functional; conditions: time 7 day
[20] = test system: SK-MEL-28; experiment: Antiproliferative activity against human SK-MEL-28 cells expressing wild-type SMARCA2 assessed as cell growth inhibition by measuring maximal efficacy measured after 7 days by WST-8 assay relative to control; format: functional; conditions: time 7 day
[21] = biological target: T1, von Hippel-Lindau disease tumor suppressor/SWI/SNF-related matrix-associated actin-dependent regulator of chromatin subfamily A member 2; experiment: PROTAC activity at VHL/C-terminal HiBiT fused SMARCA2 in human HeLa cells assessed as induction of SMARCA2 degradation incubated for 1 hr by Nano-Glo HiBiT analysis; format: cell-based
Target sequence in this assay (P51531 whole entry, the tested form may be a part): as the sequence (P51531 whole entry, the tested form may be a part) above
Target sequence in this assay (P40337 whole entry, the tested form may be a part): as the sequence (P40337 whole entry) above

[22] = biological target: T1, von Hippel-Lindau disease tumor suppressor/SWI/SNF-related matrix-associated actin-dependent regulator of chromatin subfamily A member 2; experiment: PROTAC activity at VHL/C-terminal HiBiT fused SMARCA2 in human HeLa cells assessed as induction of SMARCA2 degradation incubated for 24 hrs by Nano-Glo HiBiT analysis; format: cell-based
Target sequence in this assay (P51531 whole entry, the tested form may be a part): as the sequence (P51531 whole entry, the tested form may be a part) above
Target sequence in this assay (P40337 whole entry, the tested form may be a part): as the sequence (P40337 whole entry) above

[23] = biological target: T1, von Hippel-Lindau disease tumor suppressor/SWI/SNF-related matrix-associated actin-dependent regulator of chromatin subfamily A member 2; experiment: PROTAC activity at VHL/wild-type SMARCA2 in human SK-MEL-5 cells assessed as induction of SMARCA2 degradation incubated for 24 hrs by Western blotting analysis; format: cell-based
Target sequence in this assay (P51531 whole entry, the tested form may be a part): as the sequence (P51531 whole entry, the tested form may be a part) above
Target sequence in this assay (P40337 whole entry, the tested form may be a part): as the sequence (P40337 whole entry) above

[24] = Toxicity in SCID mouse xenografted with human SK-MEL-5 cells assessed as effect on change in body weight at 25 to 50 mg/kg, iv administered twice a week measured after 32 days; format: organism-based; conditions: in vivo, 768 h, dose 25-50 mg/kg, time 32 day
[25] = biological target: T1, von Hippel-Lindau disease tumor suppressor/SWI/SNF-related matrix-associated actin-dependent regulator of chromatin subfamily A member 2; experiment: In vivo PROTAC activity at VHL/SMARCA2 in SCID mouse xenografted with human NCI-H838 cells assessed as reduction of SMARCA2 level in tumor at 50 mg/kg, iv administered as single dose measured after 48 hrs by Western blotting analysis; format: functional, organism-based; parameters: scale not given: the % may be the effect or the level left
[26] = test system: SK-MEL-5; experiment: Antitumor activity against SMARCA4-deficient human SK-MEL-5 cells xenografted in SCID mouse assessed as tumor growth inhibition at 50 mg/kg, iv administered twice a week measured after 32 days relative to control; format: functional; conditions: SK-MEL-5, 768 h, time 32 day, read-out: TGI

With `Cc1ncsc1-c1ccc([C@H](C)NC(=O)[C@@H]2C[C@@H](O)CN2C(=O)[C@@H](NC(=O)[C@H]2CC[C@H](CN3CC4(CCC(n5cc(-c6cc(-c7ccccc7O)nnc6N)cn5)CC4)C3)CC2)C(C)(C)C)cc1` the Emax [1] was 79%, the Activity [2] was 9% and the GI50 [3] was > 10000 nM. For the same molecule, the Imax [4] was 74%, the Activity [5] was 16% and the concentration at 48 h [6] was 978 ng/g. For the same molecule, the Activity [7] was 22%, the GI50 [8] was 42 nM and the DC50 [9] was > 3300 nM. For the same molecule, the Activity [10] was 91%, the DC50 [11] was > 3300 nM and the DC50 [12] was > 339 nM. For the same molecule, the Activity [13] was “Dose-Dependent Effect”, the Activity [14] was “Tde” and the DC50 [15] was 63 nM. It also gave an Activity [16] of 29%, an Emax [17] of 91% and a concentration at 72 h [18] of 6.7 ng/mL. The Imax [19] was 69%, the Imax [20] was 15% and the DC50 [21] was 250 nM. For the same molecule, the DC50 [22] was 10 nM, the DC50 [23] was 20 nM and the Activity [24] was “Non-Toxic”. It also gave an Activity [25] of 75% and an inhibition in vivo at 50 mg/kg [26] of 74%.
